Experimental data reported in publication PMC7866972, “Crosstalk of Cancer Signaling Pathways by Cyclic Hexapeptides and Anthraquinones from Rubia cordifolia” (Molecules, 2021).

Assays:
Type in all cases: cell-based
Stat3 = Stat3 luciferase reporter assay (IL-6 induced); conditions: Homo sapiens, HeLa cells
Description: (§1) Hela cells from ATCC were plated in white opaque 384 well plates at a density of 4300 cells/well in 30 µL of a growth medium (DMEM with 10% FBS and 1% Pen/step). The next day, the medium was aspirated and replaced with DMEM containing 10% FBS. The cells were transfected with respective plasmids using the X-tremeGENE HP transfection reagent (Roche). Luciferase vectors used in this assay are summarized in Table S2, Supporting Information. After 24 h of transfection, the test agents were added to the transfected cells, followed 30 min later by an inducing agent (IL-6 for Stat 3, TGF-beta for Smad, m-wnt3a for Wnt and PMA for AP-1, NF-kB, E2F, Myc, ETS, Notch and Hedgehog). No inducer was added for FoXO, miR-21, and […]. After 4 h or 6 h of induction, the cells were lysed by the addition of the One-Glo luciferase assay system (Promega, Madison, WI, USA). The light output was detected in a Glomax Multi+ detection system with the Instinct Software (Promega, Madison, WI, USA). This luciferase assay determines if the test agent was able to inhibit the activation of cancer-related signaling pathways. In the case of FoxO and mi-R21, the enhanced luciferase activity by the test agent was assessed.

Smad = Smad luciferase reporter assay (TGF-beta induced); conditions: Homo sapiens, HeLa cells
Description: as §1

Ap-1 = assay: AP-1 luciferase reporter assay (PMA induced); conditions: HeLa cells, compared to pTK as control, 4 h, read-out: percentage of luciferase induction Ap-1/PMA
Description: as §1

NF-κB = NF-κB luciferase reporter assay (PMA induced); conditions: HeLa cells
Description: as §1

E2F = E2F luciferase reporter assay (PMA induced); conditions: Homo sapiens, HeLa cells, compared to pTK as control, 4 h, read-out: percentage of luciferase induction E2F/PMA
Description: as §1

Myc = Myc luciferase reporter assay (PMA induced); conditions: Homo sapiens, HeLa cells
Description: as §1

Ets = Ets luciferase reporter assay (PMA induced); conditions: Homo sapiens, HeLa cells
Description: as §1

Notch = Notch luciferase reporter assay (PMA induced); conditions: Homo sapiens, HeLa cells, compared to pTK as control, 6 h, read-out: percentage of luciferase induction Notch/PMA
Description: as §1

FoxO = FoxO luciferase reporter assay (no inducer); conditions: Homo sapiens, HeLa cells, 6 h, read-out: percentage of luciferase induction FoxO/No Induction
Description: as §1

Wnt = Wnt luciferase reporter assay (m-wnt3a induced); conditions: Homo sapiens, HeLa cells
Description: as §1

Hedgehog = Hedgehog luciferase reporter assay (PMA induced); conditions: Homo sapiens, HeLa cells, compared to pTK as control, 6 h, read-out: percentage of luciferase induction Hdghog/PMA
Description: as §1

miR-21 = miR-21 luciferase reporter assay (no inducer); conditions: Homo sapiens, HeLa cells, 6 h, read-out: percentage of luciferase induction mi-R21/No Induction
Description: as §1

pTK control vector = pTK control vector luciferase assay (minimal thymidine kinase promoter); conditions: Homo sapiens, HeLa cells, no inducer, read-out: percentage of luciferase induction pTK/No Induction
Description: as §1

[1] = test system: cancer-related signaling pathways in HeLa cells; assay: Panel of luciferase reporter genes for cancer-related signaling pathways; conditions: HeLa cells; 30 µM
Description: as §1
The simulated gastric fluid was prepared as described in the United States Pharmacopoeia (USP, 1995) and consists of 0.2% w/v of NaCl and 0.7% v/v of hydrochloric acid at pH 1.2. Aliquots (48 µL) of SGF were placed in 1.5-mL microcentrifuge tubes and incubated in a water bath at 37 °C [35]. In addition, 2 µL of compound 6 (10 mg/mL in DMSO) was added to each of the SGF vials to start the digestion reaction. The incubation was continued for 60 min and the digestion was stopped with 150 µL of ice-cold cell culture media. The digested samples were used for the cytotoxicity and luciferase assays at different concentrations and the activities were compared between the untreated and SGF treated peptide samples.

[2] = compared to pTK as control, 4 h, read-out: percentage of luciferase induction Stat3/IL-6
[3] = compared to pTK as control, 4 h, read-out: percentage of luciferase induction Smad/TGF-β
[4] = Homo sapiens, compared to pTK as control, 4 h, read-out: percentage of luciferase induction NF-kB/PMA
[5] = compared to pTK as control, 4 h, read-out: percentage of luciferase induction Myc/PMA
[6] = compared to pTK as control, 4 h, read-out: percentage of luciferase induction Ets/PMA
[7] = compared to pTK as control, 6 h, read-out: percentage of luciferase induction Wnt/m-wnt 3a

| Compound | activity at 30 µM (Stat3; [2]) [%] | activity at 30 µM (Smad; [3]) [%] | activity at 30 µM (Ap-1) [%] | activity at 30 µM (NF-κB; [4]) [%] | activity at 30 µM (E2F) [%] | activity at 30 µM (Myc; [5]) [%] | activity at 30 µM (Ets; [6]) [%] | activity at 30 µM (Notch) [%] | activity at 30 µM (FoxO) [%] | activity at 30 µM (Wnt; [7]) [%] | activity at 30 µM (Hedgehog) [%] | activity at 30 µM (miR-21) [%] | activity at 30 µM (pTK control vector) [%] | activity towards the signaling pathways (in words) [1] | also measured |
| --- | --- | --- | --- | --- | --- | --- | --- | --- | --- | --- | --- | --- | --- | --- | --- |
| O=C1c2ccccc2C(=O)c2c1ccc(O)c2O [Compound 1, alizarin] | 81 | 109 | 87 | 60 | 172 | 61 | 66 | 106 | 69 | 46 | 57 | 141 | 116 | selective inhibition of Wnt and Hedgehog signaling pathways |  |
| O=C1c2ccccc2C(=O)c2c(O)c(O)cc(O)c21 [Compound 2, purpurin] | 102 | 163 | 73 | 65 | 190 | 61 | 103 | 194 | 94 | 77 | 152 | 259 | 198 | least active among these three anthraquinones |  |
| Cc1cc(O)c2c(c1)C(=O)c1cc(O)cc(O)c1C2=O [Compound 3, emodin] | 48 | 46 | 45 | 45 | 144 | 46 | 53 | 424 | 112 | 11 | 42 | 309 | 144 | inhibited the activation of several pathways with Wnt being the most sensitive |  |
| Cc1cc(O)c2c(c1)C(=O)c1cccc(O)c1C2=O [Compound 11, chrysophanol, reference compound] | 171 | 160 | 115 | 90 | 251 | 144 | 130 | 195 | 102 | 114 | 214 | 280 | 183 |  |  |
| O=C1c2cccc(O)c2C(=O)c2c(O)cccc21 [Compound 12, danthron, reference compound] | 137 | 101 | 122 | 62 | 328 | 115 | 120 | 126 | 85 | 122 | 168 | 156 | 101 |  |  |
| O=C1c2ccccc2C(=O)c2c(O)ccc(O)c21 [Compound 13, quinizarin, reference compound] | 164 | 159 | 107 | 62 | 282 | 81 | 127 | 198 | 101 | 97 | 142 | 171 | 134 |  |  |
| O=C1c2cccc(O)c2C(=O)c2c(O)cc(CO)cc21 [Compound 14, aloe-emodin, reference compound] | 132 | 78 | 138 |  | 178 | 95 | 128 | 157 | 109 | 129 | 99 | 167 | 136 |  |  |
| CC1(C)CCC2=C(O1)C(=O)c1ccccc1C2=O [Compound 15, α-lapachone, reference compound] |  |  |  |  |  |  |  |  |  |  |  |  |  |  | activity at 5 µM (Stat3; 5 µM, compared to pTK as control, 4 h, read-out: percentage of luciferase induction Stat3/IL-6): 22%; inhibition at 5 µM (Stat3; 5 µM, read-out: inhibition of Stat3 induction): > 50%; activity at 5 µM (Smad; 5 µM, compared to pTK as control, 4 h, read-out: percentage of luciferase induction Smad/TGF-β): 27%; inhibition at 5 µM (Smad; 5 µM, read-out: inhibition of Smad induction): > 50%; activity at 5 µM (Ap-1; 5 µM): 88%; inhibition of NF-kB induction (NF-κB; 5 µM): more than 50%; activity at 5 µM (NF-κB; Homo sapiens, 5 µM, compared to pTK as control, 4 h, read-out: percentage of luciferase induction NF-kB/PMA): 44%; activity at 5 µM (E2F; 5 µM): 82%; activity at 5 µM (Myc; 5 µM, compared to pTK as control, 4 h, read-out: percentage of luciferase induction Myc/PMA): 44%; inhibition at 5 µM (Myc; 5 µM, read-out: inhibition of Myc induction): > 50%; activity at 5 µM (Ets; 5 µM, compared to pTK as control, 4 h, read-out: percentage of luciferase induction Ets/PMA): 45%; inhibition at 5 µM (Ets; 5 µM, read-out: inhibition of ETS induction): > 50%; activity at 5 µM (Notch; 5 µM): 85%; activity at 5 µM (FoxO; 5 µM): 100%; activity at 5 µM (Wnt; 5 µM, compared to pTK as control, 6 h, read-out: percentage of luciferase induction Wnt/m-wnt 3a): 53%; inhibition at 5 µM (Wnt; 5 µM, read-out: inhibition of Wnt induction): > 50%; activity at 5 µM (Hedgehog; 5 µM): 86%; activity at 5 µM (miR-21; 5 µM): 127%; activity at 5 µM (pTK control vector; 5 µM): 97% |
